Measured values taken from patent US9695191B2, “Conformationally constrained, fully synthetic macrocyclic compounds” (POLYPHOR AG, priority 2009, dated 2017).

Key:
[1] = human, 10 μM
Description: (§2) Example compounds were dissolved in DMSO/H2O 90:10 to a final concentration of 10 mM for plasma stability determination and metabolic stability determination.
(§3) Human plasma (3-5 donors, Blutspendedienst SRK, Basel) and CD-1 mouse plasma (mixed gender pool>50 animals, Innovative Research, CA, USA) are both sodium citrate stabilized. The assay is performed in triplicates at 10 μM compound concentration and 37° C. Samples are taken at 0, 15, 60, and 240 minutes and stopped by precipitation with 2 volumes of acetonitrile. The supernatant is collected, evaporated and reconstituted in a 5% acetonitrile solution to be analyzed by HPLC/MS/MS. The resulting peak area counts are expressed in percent of the 0 value and used to determine the endpoint stability in % and the half life T½ in minutes. In order to monitor assay integrity the degradation of propantheline is assayed with every experimental set

[2] = both, CD-1, mouse, 10 μM
Description: as §2, §3

[3] = Metabolic stability, CD-1 mouse microsomes; type: in vitro ADME; conditions: 37° C.; for Metabolic Stability 60 min mouse: % of the initial 0 minutes value at 60 min, 10 μM
Description: (§1) Microsomes from a human 50 donor mixed gender pool and 1:1 mixtures of microsomes from CD-1 mouse single-gender pools are purchased from Celsis (Belgium). The enzymatic reaction is performed in a buffer containing an NADPH regeneration system and microsomes with the following end concentrations: 100 mM potassium phosphate buffer (all from Sigma), 1 mg/mL glucose-6-phosphate, 1 mg/mL β-nicotinamide adenine dinucleotide phosphate (NADP), 0.65 mg/mL magnesium chloride, 0.8 units/mL of glucose-6-phosphate dehydrogenase (prediluted with 5 mM citrate buffer), 10 μM compound and 1 mg/ml microsomal protein. Compounds are incubated at 37° C. in duplicates and samples are taken after 0, 20 and 60 minutes. After acetonitrile precipitation (2 volumes) and HPLC/MS/MS analysis metabolic turnover is expressed in % of the initial 0 minutes value and half life T½ (min) is calculated. Verapamil for human and propranolol for mouse are used as reference and are assayed with every experimental set. • F. P. Guengerich, Analysis and Characterization of Enzymes; in: Principles and Methods of Toxicology; A. W. Hayes (Ed.) Raven Press: New York, 1989, 777-813. • R. Singh et al., In vitro metabolism of a potent HIV-protease inhibitor (141W94) using rat, monkey and human liver S9, Rapid Commun. Mass Spectrom. 1996, 10, 1019-1026. 5. Results

[4] = Metabolic stability, human microsomes; type: in vitro ADME; conditions: 37° C.; for Metabolic Stability 60 min hum: % of the initial 0 minutes value at 60 min, 10 μM
Description: as §1

[5] = 10 μM compound, 1 mg/ml microsomal protein, sampling up to 60 min

SMILES	Plasma Stability 240 min hum [1]	Plasma Stability 240 min mouse [2]	Metabolic Stability 60 min mouse [3]	Metabolic Stability 60 min hum [4]	Metabolic Stability T ½ [min] mouse [3, 5]	Metabolic Stability T ½ [min] hum [4, 5]
CN1C[C@H](NC(=O)OCc2ccccc2)C(=O)N(C)CC(=O)N2C[C@@H](NC(=O)Cc3c[nH]c4ccccc34)C[C@H]2COc2cccc(c2)C1=O [Ex. 200, benzyl N-[(4S,6S,13S)-6-{[2-(1H-indol-3-yl)acetyl]amino}-11,15-dimethyl-9,12,16-trioxo-2-oxa-8,11,15-triazatricyclo[15.3.1.0^4,8]henicosa-1(21),17,19-trien-13-yl]carbamate]	91%	100%	26%	12%	–	–
CCCCC(=O)N[C@@H]1C[C@H]2COc3ccc(F)cc3C(=O)N(C)[C@H](C(=O)N(C)CCN(C)C)CCC(=O)N(C)CC(=O)N2C1 [Ex. 78, (2R,11S,19aS)-N-[2-(dimethylamino)ethyl]-15-fluoro-N,7,12-trimethyl-5,8,13-trioxo-2-(pentanoylamino)-2,3,6,7,8,9,10,11,12,13,19,19a-dodecahydro-1H,5H-pyrrolo[2,1-c][1,4,7,12]benzoxatriazacyclopentadecine-11-carboxamide]	65%	100%	100%	78%	–	–
CNC(=O)[C@H]1CCC(=O)N(C)CC(=O)N2C[C@@H](NC(=O)Cc3ccc4ccccc4c3)C[C@H]2COc2ccc(F)cc2C(=O)N1C [Ex. 93, (2S,11R,19aS)-15-fluoro-N,7,12-trimethyl-2-{[2-(2-naphthyl)acetyl]amino}-5,8,13-trioxo-2,3,6,7,8,9,10,11,12,13,19,19a-dodecahydro-1H,5H-pyrrolo[2,1-c][1,4,7,12] benzoxatriazacyclopentadecine-11-carboxamide]	100%	100%	15%	1%	–	–
CN(C)CCNC(=O)[C@H]1CCC(=O)N(C)CC(=O)N2CCN(C(=O)Cc3ccc4ccccc4c3)C[C@@H]2COc2ccc(F)cc2C(=O)N1C [Ex. 138, (12R,20aR)-N-[2-(dimethylamino)ethyl]-16-fluoro-8,13-dimethyl-2-[2-(2-naphthyl)acetyl]-6,9,14-trioxo-1,2,3,4,7,8,9,10,11,12,13,14,20,20a-tetradecahydro-6H-pyrazino[2,1-c][1,4,7,12] benzoxatriazacyclopentadecine-12-carboxamide]	89%	78%	99%	62%	–	–
CC(=O)N[C@H]1C[C@H]2COc3ccc(F)cc3C(=O)N(C)[C@H](C(=O)N3CCCC3)CCC(=O)N(C)CC(=O)N2C1 [Ex. 37, N-[(2S,11S,19aS)-15-fluoro-7,12-dimethyl-5,8,13-trioxo-11-(1-pyrrolidinylcarbonyl)-2,3,6,7,8,9,10,11,12,13,19,19a-dodecahydro-1H,5H-pyrrolo[2,1-c][1,4,7,12]benzoxatriazacyclopentadecin-2-yl]acetamide]	77%	100%	100%	100%	60 min	60 min
CN(C)CCNC(=O)[C@@H]1CCC(=O)N(C)CC(=O)N2C[C@@H](NC(=O)Cc3c[nH]c4ccccc34)C[C@H]2COc2ccc(F)cc2C(=O)N1C [Ex. 11, (2S,11S,19aS)-N-[2-(dimethylamino)ethyl]-15-fluoro-2-{[2-(1H-indol-3-yl)acetyl]amino}-7,12-dimethyl-5,8,13-trioxo-2,3,6,7,8,9,10,11,12,13,19,19a-dodecahydro-1H,5H-pyrrolo [2,1-c][1,4,7,12]benzoxatriazacyclopentadecine-11-carboxamide]	100%	100%	77%	74%	–	–
CN1CC(=O)N2C[C@@H](N)C[C@H]2COc2ccc(F)cc2C(=O)N(C)[C@@H](C(=O)NCc2ccc3ccccc3c2)CCC1=O [Ex. 91, (2S,11R,19aS)-2-amino-15-fluoro-7,12-dimethyl-N-(2-naphthylmethyl)-5,8,13-trioxo-2,3,6,7,8,9,10,11,12,13,19,19a-dodecahydro-1H,5H-pyrrolo[2,1-c][1,4,7,12] benzoxatriazacyclopentadecine-11-carboxamide]	96%	88%	95%	91%	–	–
CN1CCC[C@H](NC(=O)OCc2ccccc2)C(=O)N2C[C@@H](NC(=O)Cc3ccc4ccccc4c3)C[C@H]2COc2cccc(c2)C1=O [Ex. 184, benzyl N-[(4S,6S,10S)-14-methyl-6-{[2-(2-naphthyl)acetyl]amino}-9,15-dioxo-2-oxa-8,14-diazatricyclo[14.3.1.0^4,8]icosa-1(20),16,18-trien-10-yl]carbamate]	66%	58%	0%	0%	–	–

The next lines start with the values.

Plasma Stability 240 min hum [1]	Plasma Stability 240 min mouse [2]	Metabolic Stability 60 min mouse [3]	Metabolic Stability 60 min hum [4]	Metabolic Stability T ½ [min] mouse [3, 5]	Metabolic Stability T ½ [min] hum [4, 5]	SMILES
100%	93%	4%	0%	–	–	CCN(CC)[C@@H]1C[C@H]2COc3ccc(cc3)C(=O)N(C)[C@H](C(=O)NCc3ccc4ccccc4c3)CCC(=O)N(C)CC(=O)N2C1 [Ex. 262, (4S,6R,15S)-6-(diethylamino)-11,16-dimethyl-N-(2-naphthylmethyl)-9,12,17-trioxo-2-oxa-8,11,16-triazatricyclo [16.2.2.0^4,8]docosa-1(20),18,21-triene-15-carboxamide]
98%	90%	100%	84%	–	–	CC(=O)N[C@H]1CN(C)C(=O)c2cccc(c2)OC[C@@H]2C[C@H](NC(=O)CN(C)C)CN2C(=O)CN(C)C1=O [Ex. 208, N-[(4S,6S,13S)-13-(acetylamino)-11,15-dimethyl-9,12,16-trioxo-2-oxa-8,11,15-triazatricyclo[15.3.1.0^4,8]henicosa-1(21),17,19-trien-6-yl]-2-(dimethylamino)acetamide]
94%	88%	32%	–	–	–	CN1CC(=O)N2C[C@H](NC(=O)Cc3ccc4ccccc4c3)C[C@H]2COc2ccc(cc2)C(=O)N(C)[C@H](C(=O)N2CCCC2)CCC1=O [Ex. 264, N-[(4S,6R,15S)-11,16-dimethyl-9,12,17-trioxo-15-(1-pyrrolidinylcarbonyl)-2-oxa-8,11,16-triazatricyclo[16.2.2.0^4,8]docosa-1(20),18,21-trien-6-yl]-2-(2-naphthyl)acetamide]
–	–	4%	0%	–	–	CCCCCCCCCC(=O)N[C@H]1CN(C)C(=O)c2cccc(c2)OC[C@@H]2C[C@H](NC(=O)Cc3c[nH]c4ccccc34)CN2C(=O)CN(C)C1=O [Ex. 213, N-[(4S,6S,13S)-6-{[2-(1H-indol-3-yl)acetyl]amino)-11,15-dimethyl-9,12,16-trioxo-2-oxa-8,11,15-triazatricyclo[15.3.1.0^4,8]henicosa-1(21),17,19-trien-13-yl]decanamide]
